From patent US7186695B2 (priority 2001, dated 2007)
Entries after “also recorded” stand apart in the source; their conditions may differ.

Experiments:
Human recombinant PDI = target: T1, Human recombinant PDI (Homo sapiens, UniProt P07237); test: Incorporation of GSAO-B into purified protein, streptavidin-peroxidase blot; type: binding
T1 construct: made in house; host or cells: E. coli
Protocol: (§1) FIG. 14. Interaction of GSAO-B with PDI and thioredoxin. A Structure of GSAO-B. B Purified human recombinant PDI (5 μM), human recombinant thioredoxin (5 μM) or bovine serum albumin (5 μM) was incubated with dithiothreitol (10 μM) for 60 minutes at room temperature to ensure that the active site disulfide(s) of PDI and thioredoxin were in the reduced dithiol form. GSAO-B (100 μM) or GSAO-B and DMP (400 μM) was then added and the reactions incubated for 30 minutes at room temperature. The labelled PDI (lanes 1 and 2), thioredoxin (lanes 3 and 4) and albumin (lane 5) (75 pmoles) was resolved on […] SDS-PAGE, transferred to PVDF membrane, and blotted with streptavidin-peroxidase to detect the GSAO-B label. The positions of Mr markers are shown at left.
(§2) Human recombinant PDI and thioredoxin bound GSAO-B (FIG. 14). Recombinant human protein disulfide isomerase (PDI) was produced in E. coli and purified according to Jiang et al. (1999). In the experiment, purified PDI, thioredoxin or albumin as negative control were incubated with a 2-fold molar excess of dithiothreitol for 60 minutes to ensure that the active site disulfides of PDI and thioredoxin were in the reduced dithiol state. The proteins were then incubated with GSAOB or GSAO-B and a 4-fold molar excess of DMP for 30 minutes. Equivalent moles of the labelled proteins were resolved on SDS-PAGE, transferred to PVDF membrane, and blotted with streptavidin-peroxidase to detect the GSAO-B label. Samples were resolved on 4–15% SDS-PAGE under non-reducing conditions (Laemmli, 1970) and transferred to PVDF membrane. Proteins were detected by Western blot using an anti-PDI murine monoclonal antibody (Jiang et al., 1999) (used at 2 μg per mL). Rabbit anti-mouse horseradish peroxidase conjugated antibodies (Dako Corporation, Carpinteria, Calif.) were used at 1:2000 dilution. GSAO-B-labelled proteins were blotted with streptavidin peroxidase (Amersham, Sydney, NSW) used at 1:1000 dilution. […] Chemiluminescence films were analysed using a GS-700 Imaging Densitometer and Multi-Analyst software (Bio-Rad, Hercules, Calif.).

Thioredoxin = target: T2, Thioredoxin (Homo sapiens, UniProt P10599); test: as above; type: binding; settings: GSAO-B 100 μM, protein 5 μM, 30 minutes
T2 construct: purchased American Diagnostica, Greenwich, Conn; host or cells: E. coli
T2 sequence (P10599 1-105): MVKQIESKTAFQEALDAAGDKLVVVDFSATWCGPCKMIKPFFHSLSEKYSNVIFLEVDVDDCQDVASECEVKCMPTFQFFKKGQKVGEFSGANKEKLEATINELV
Protocol: as §1, §2

bovine serum albumin = bovine serum albumin (Bos taurus, UniProt P02769); test: Incorporation of GSAO-B into purified protein, streptavidin-peroxidase blot (negative control protein); type: binding; settings: GSAO-B 100 μM, protein 5 μM, 30 minutes
Chain of bovine serum albumin (P02769 25-607): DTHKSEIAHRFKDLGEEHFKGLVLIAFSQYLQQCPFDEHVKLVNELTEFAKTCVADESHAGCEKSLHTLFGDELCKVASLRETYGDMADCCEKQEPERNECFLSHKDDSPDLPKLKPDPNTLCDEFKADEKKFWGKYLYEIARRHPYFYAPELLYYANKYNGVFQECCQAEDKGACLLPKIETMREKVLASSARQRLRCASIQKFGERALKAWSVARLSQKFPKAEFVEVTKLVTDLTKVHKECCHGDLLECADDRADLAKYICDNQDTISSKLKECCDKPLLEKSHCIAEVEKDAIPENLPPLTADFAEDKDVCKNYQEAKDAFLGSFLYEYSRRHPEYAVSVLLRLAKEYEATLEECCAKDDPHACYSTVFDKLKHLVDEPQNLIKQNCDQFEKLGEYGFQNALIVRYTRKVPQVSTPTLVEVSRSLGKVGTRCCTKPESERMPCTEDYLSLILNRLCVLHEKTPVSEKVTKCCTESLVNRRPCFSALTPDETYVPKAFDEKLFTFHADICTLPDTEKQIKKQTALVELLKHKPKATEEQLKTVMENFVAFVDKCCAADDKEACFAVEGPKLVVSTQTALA
Protocol: as §1
Human recombinant PDI and thioredoxin bound GSAO-B (FIG. 14). Recombinant human protein disulfide isomerase (PDI) was produced in E. coli and purified according to Jiang et al. (1999). […] Proteins were detected by Western blot using an anti-PDI murine monoclonal antibody (Jiang et al., 1999) (used at 2 μg per mL). […] Chemiluminescence films were analysed using a GS-700 Imaging Densitometer and Multi-Analyst software (Bio-Rad, Hercules, Calif.).

HMEC-1 or HUVE cells = test: Labelling of endothelial cell surface proteins with GSAO-B; type: cell-based, human; settings: GSAO-B 100 μM, 30 minutes
Protocol: FIG. 16. Identification of endothelial cell surface proteins that contain closely spaced dithiol(s). A The surface of HMEC-1 or HUVE cells (2×10^6 cells in 0.4 mL) was labelled with GSAO-B (100 μM) for 30 minutes at room temperature in the absence (lanes 1 and 3) or presence of DMP (400 μM) (lane 2). The endothelial cells were lysed and the lysate from both incubations was resolved on 4–15% SDS-PAGE, transferred to PVDF membrane, and blotted with streptavidin peroxidase to detect the GSAO-B label. The results represent labelling of 3×10^4 HMEC-1 (lanes 1 and 2) of HUVE cells (lane 3). The positions of Mr markers are shown at left. B Densitometry profile of the surface labelled proteins (lanes 1 and 3). The apparent Mr's of the individual proteins are indicated.
Human umbilical vein endothelial cells (HUVEC) (Wall et al., 1978) and the human dermal microvascular endothelial cell line, HMEC-1 (Ades et al., 1992), were harvested and cultured as indicated. […] Bound proteins were washed 5 times with 50 mM Tris/HCl, pH 8 buffer containing 0.15 M NaCl and 0.05% Triton X-100, resolved on SDS-PAGE, transferred to PVDF membrane, and the GSAO-B-labelled proteins detected by Western blot.

[1] = tested on: PDI on the endothelial cell surface; test: GSAO-B labelling of cell surface PDI, streptavidin-agarose pull-down and anti-PDI blot; type: cell-based, bovine; settings: GSAO-B 100 μM, absence of DMP
Protocol: FIG. 17. PDI was one of the GSAO-B labelled proteins on the endothelial cell surface. HUVEC (5×10^6 cells in 0.75 mL) were labelled with GSAO-B (100 μM) for 30 minutes at 37° C. in the absence (lanes 1) or presence of DMP (400 μM) (lane 2). The cells were lysed and incubated with streptavidin-agarose beads to collect the biotin-labelled proteins. The labelled proteins were resolved on 4–15% SDS-PAGE, transferred to PVDF membrane, and blotted with anti-PDI monoclonal antibodies. The results represent labelling of 5×10^6 endothelial cells. The positions of Mr markers are shown at left.
BAE cells were labelled with GSAO-B in the absence or presence of DMP, lysed and incubated with streptavidin-agarose beads to collect the biotin-labelled proteins. The labelled proteins were eluted from the beads, resolved on SDS-PAGE, transferred to PVDF membrane, and blotted with anti-PDI polyclonal antibodies.

BAE cells = test: cells; settings: Bos taurus, Endothelial cell, 24 h, read-out: IC50 for viability

T1 sequence (P07237 18-508): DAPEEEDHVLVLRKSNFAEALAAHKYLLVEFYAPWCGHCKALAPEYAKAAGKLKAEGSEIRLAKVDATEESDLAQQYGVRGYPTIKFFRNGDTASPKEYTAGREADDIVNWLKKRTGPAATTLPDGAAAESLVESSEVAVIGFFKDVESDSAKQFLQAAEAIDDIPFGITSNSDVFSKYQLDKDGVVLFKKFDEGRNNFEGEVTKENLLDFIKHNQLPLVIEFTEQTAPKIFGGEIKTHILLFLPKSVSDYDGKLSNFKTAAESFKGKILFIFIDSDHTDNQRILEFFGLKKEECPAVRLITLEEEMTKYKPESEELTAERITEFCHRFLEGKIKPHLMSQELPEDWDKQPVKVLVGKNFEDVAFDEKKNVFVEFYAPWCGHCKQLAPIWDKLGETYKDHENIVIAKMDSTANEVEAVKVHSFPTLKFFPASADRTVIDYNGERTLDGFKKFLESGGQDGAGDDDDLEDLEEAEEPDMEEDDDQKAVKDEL

4-(N-(S-(N-(6-(N-(6-(N-(biotinoyl)-amino)hexanoyl)amino)hexanoyl)glutathiony)acetyl)amino)phenylarsenoxide [GSAO-B]
incorporation of GSAO-B (Human recombinant PDI; GSAO-B 100 μM, protein 5 μM, 30 minutes): bound GSAO-B; also recorded: incorporated GSAO-B
density of labelling of PDI relative to thioredoxin (Human recombinant PDI; equivalent moles of labelled proteins): approximately twice
incorporation of GSAO-B (Thioredoxin): bound GSAO-B; also recorded: incorporated GSAO-B
incorporation of GSAO-B (bovine serum albumin): albumin did not
proteins on the endothelial cell surface that incorporated GSAO-B (HMEC-1 or HUVE cells): approximately ten proteins
labelling of cell surface PDI by GSAO-B [1]: PDI was one of the proteins on the endothelial cell surface that incorporated GSAO-B

O=[As]c1ccc(NC(=O)CSCCC(=O)N[C@@H](CC(=O)O)C(=O)O)cc1 (stereo partly drawn) [AspAO, N-(3-(4-arsenoso-phenylcarbamoylmethylthio)propanoyl)-L-aspartic acid]
IC50 (BAE cells): < 1 µM

O=[As]c1ccc(NC(=O)CSCCC(=O)N[C@@H](CS(=O)(=O)O)C(=O)O)cc1 (stereo partly drawn) [Cys*AO, N-(3-(4-arsenosophenylcarbamoylmethylthio)propanoyl)-L-cysteic acid]
IC50 (BAE cells): < 10 µM

O=[As]c1ccc(NC(=O)CSCCC(=O)N[C@H]2C(O)O[C@H](CO)[C@@H](O)[C@@H]2O)cc1 (stereo partly drawn) [GlcAO, N-(3-(4-arsenosophenylcarbamoylmethylthio)propanoyl)-D-glucosamine]
IC50 (BAE cells): < 1 µM

O=[As]c1ccc(NC(=O)CSCCC(=O)N[C@@H](CCC(=O)O)C(=O)O)cc1 (stereo partly drawn) [GluAO, N-(3-(4-arsenosophenylcarbamoylmethylthio)propanoyl)-L-glutamic acid]
IC50 (BAE cells): < 10 µM
